Measured values as given in PMC9168271, “Discovery of Novel Tetrahydro-β-carboline Containing Aminopeptidase N Inhibitors as Cancer Chemosensitizers” (Frontiers in Oncology, 2022).

Assays:
[1] = test system: CD13 (APN) expression in MDA-MB-231 cells; test: Flow cytometry of APN expression; format: cell-based, human; conditions: 48 h
Description: (§1) The cells were seeded in 6-well plates (4 × 10^5 cells/well) and treated with tested compounds for 48 h. Then, cells were collected into 1.5 mL EP tubes, washed twice with PBS, and centrifuged at 2500rpm for 5minutes. Cells were resuspended with 100μlof PBS, then 2μL/tube of APN antibody was added, followed by incubation in dark for 30 minutes at 4°C. Then the cells were subjected to flow cytometry (FACSAria II, Becton-Dickinson) for the expression of APN.

[2] = test system: CD13 (APN) expression in MDA-MB-468 cells; test: Flow cytometry of APN expression; format: cell-based, human; conditions: 48 h
Description: as §1

[3] = biological target: Aminopeptidase N (APN, CD13) (Homo sapiens, UniProt P15144); test: APN enzyme inhibitory assay, supernatant of K562-CD13 cells as enzyme source, L-leucine-p-nitro anilide substrate; conditions: for inhibition at 30 µM: read-out: Inhibitory rate (%);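 as to all read-outs here: substrate L-leucine-p-nitro anilide used at 1.6 mM, with enzyme from sonicated APN-overexpressing K562 cell lysate supernatant, run in 96-well plates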
Description: In the enzyme inhibitory assay, K562-CD13 monoclonal cells were used as APN enzyme source as described in our previous work ([27]).
K562 cells with overexpression of APN were added into PBS for ultrasonic crushing, centrifuged for 10 minutes, and supernatant was taken as enzyme source and added into 96-well plate. Different concentrations of compounds were added subsequently, and 1.6 mM L-leucine-p-nitro anilide was used as substrate. After 30 minutes of reaction, the APN enzyme activity was measured at 405 nm absorbance. The inhibition rate of APN activity was analyzed by the formula (Od control OD tested)/Od control 100%.

[4] = test system: luciferase-expressing MDA-MB-231 cells; test: In vivo anticancer study, xenograft model in female nude mice; conditions: 20 mg/kg/d APN inhibitor + 10 mg/kg/3 days PTX; 3 weeks; n = 4
Description: To evaluate the in vivo anticancer potency of the combination of PTX-APN inhibitor, cancer xenograft model was established by inoculation of luciferase- expressing MDA-MB-231 cells to female nude mice. About 1×10^7 MDA-MB-231 cells were injected subcutaneously into the right fat pad of the fourth mammary gland of the mice. […] Significant tumor size variations were observed among different groups ( Figures 5A, B ). […] Moreover, no clear signs of toxicity in liver and spleen were detected in the sacrificed mice.
Female Nude mice aged 3 weeks were purchased from Hunan SJA Experimental Animal Company and raised under SPF aseptic conditions. About 1×10^7 luciferase overexpressing MDA-MB-231 cells were injected subcutaneously into the right fat pad of the fourth mammary gland of each mouse. […] PBS group animals received PBS via intraperitoneal injection, while 10 mg/kg/3 days of PTX was administered to animals in the PTX group. […] After 3 weeks of administration, each mouse was intraperitoneally injected with 200uL of fluorescein substrate (d-fluorescein potassium salt, 150mg/kg), and then anesthetized with isoflurane. In vivo fluorescence imaging system (IVIS Spectrum, PerkinElmer) and SlideBook4.0 software were utilized for the result analysis. After the imaging analysis, mice were sacrificed and dissected for the detection of tumor size and calculation of liver/spleen indexes. All animal experiments were approved by the Animal Care and Use Committee of Weifang Medical University.

MDA-MB-231 cells [5] = test: Spheroid-formation assay; format: cell-based, human; conditions: 1 nM PTX + 1 µM APN inhibitor, 7 days
Description: (§2) Cancer stem cells (CSCs) play an important role in the resistance of cancer cells to chemotherapeutic drugs. APN has been reported to be a therapeutic target in human cancer stem cells ([18]). Therefore, the CSC based test was performed in the present study. Colony-formation assay and spheroid-formation assay are two commonly used methods to assess the capacity of CSCs in vitro. In the spheroid-formation assay, MDA-MB-231 and MDA-MB-468 cells were dispersed into single cells, inoculated into low-adherence 6-well plates, and added with stem cell sphere medium. The stem cell spheres became visible after 5-6 days incubation. […] It is known that mRNA levels of the stem cell biomarkers OCT-4, SOX-2 and Nanog are associated with the characteristics of TNBC stem cells ([30]). Therefore, RT-PCR was performed on the TNBC cells to detect the mRNA levels of these markers.
(§3) MDA-MB-231 cells and MDA-MB-468 cells in logarithmic growth phase were collected, stem cell sphere culture medium without serum (containing 50X B-27Supplement,100X N-2 Supplement,20 μg/L epidermal growth factor (EGF), 20µg/L insulin-like growth factor (IGF-1), 10 μg/L fibroblast growth factor (b-FGF), 20X Knock Out SR, 2mM L-Glutamine, 5mg/L Heparin sodium, 1X PENICILLIN-STREPTOMYCIN and DMEM: F12 (1:1) medium was added for the re-suspension and fully blown into single-cell suspension. The cells were diluted to 5,000/2 mL, with stem cell sphere culture medium, and cultured in a 37°C, 5% CO2 cell incubator. The number of stem cell spheres were observed every day. […]

MDA-MB-468 cells [6] = test: Spheroid-formation assay; format: cell-based, human; conditions: 1 nM PTX + 1 µM APN inhibitor, 7 days
Description: as §2, §3

MDA-MB-231 cells [7] = test: Colony-formation assay; format: cell-based, human; conditions: 0.2 nM PTX + 1 µM APN inhibitor, 14 days
Description: as §2
(§4) 3000 cells were suspended in 2 mL medium, and seeded into the wells of six-well plate. After 12 hours of incubation, cells were treated with various compounds. Until each colony had more than 50 cells, this experiment terminated. Cells were washed twice with PBS and fixed with methanol for 10minutes. Then cells were stained with 1% crystal violet for 5minutes. Finally, colonies were washed and pictures were taken under a microscope (IX81, Olympus).

MDA-MB-468 cells [8] = test: Colony-formation assay; format: cell-based, human; conditions: 0.2 nM PTX + 1 µM APN inhibitor, 14 days
Description: as §2, §4

MDA-MB-231 cells [9] = test: MTT antiproliferative assay, chemotherapeutic drug with APN inhibitor; format: cell-based, human; conditions: for antiproliferative activity of chemotherapeutic drugs in combination with APN inhibitor: with PTX, EPB, CTX, CBP, 48 h
Text: (§5) The combination of APN inhibitor and paclitaxel (PTX), has been employed for the treatment of human breast cancer. In the current study, molecules with good APN inhibitory potency (D12, D14 and D16) were selected and used in combination with several chemotherapeutic drugs, such as PTX, EPB, cyclophosphamide (CTX) and carboplatin (CBP) to investigate its inhibitory effect on breast cancer. Human triple negative breast cancer cell (TNBC) lines MDA-MB-231 and MDA-MB-468 were utilized in the in vitro studies. […] It was also observed that the synthesized molecules enhanced chemotherapeutic drug sensitivity in a dose dependent manner. Therefore, further analysis was performed to examine the synergistic effects of the derived APN inhibitors and chemotherapeutic drugs.
(§6) Then, 10μL of MTT solution (5 mg/mL) were added to each well. After incubation for 4h, the medium was carefully removed, and 100 μL DMSO was added to each well and fully dissolved in vibration for 10min. The optical density (OD) at 490 nm and 630 nm were measured with a microplate Spectrophotometer (M5, MD). IC50 values were obtained from at least 3 independent experiments.

MDA-MB-468 cells [10] = test: as above; format: cell-based, human; conditions: for antiproliferative activity of chemotherapeutic drugs in combination with APN inhibitor: with PTX, EPB, CTX, CBP, 48 h
Text: as §5, §6

MDA-MB-231 cells [11] = test: Apoptosis analysis (Annexin V-FITC/PI); format: cell-based, human; conditions: 48 h
Description: (§7) Moreover, APN inhibitor-induced chemo-sensitization had been frequently reported for PTX ([17], [29]). Therefore, the combination of PTX-APN inhibitor was selected in the subsequent studies.
(§8) The cells were seeded in 6-well plates (3 × 10^5 cells/well) and treated with various compounds for 48 h. Then, cells were collected and washed twice with cold PBS. Annexin V-FITC staining solution was then added to the cells, and cells were incubated at 2-8°C for 15 minutes under dark conditions. Then, PI staining solution was added by gentle mix at 2-8°C. After 5 minutes of incubation under dark conditions, cells were tested with flow cytometry immediately.

MDA-MB-468 cells [12] = test: Apoptosis analysis (Annexin V-FITC/PI); format: cell-based, human; conditions: 48 h
Description: as §7, §8

MDA-MB-231 cells [13] = test: Cellular reactive oxygen species detection (DCFH-DA, flow cytometry); format: cell-based, human; conditions: PTX alone, 48 h
MDA-MB-468 cells [14] = test: as above; format: cell-based, human; conditions: PTX alone, 48 h

Sequence of Aminopeptidase N (APN, CD13) (P15144 whole entry): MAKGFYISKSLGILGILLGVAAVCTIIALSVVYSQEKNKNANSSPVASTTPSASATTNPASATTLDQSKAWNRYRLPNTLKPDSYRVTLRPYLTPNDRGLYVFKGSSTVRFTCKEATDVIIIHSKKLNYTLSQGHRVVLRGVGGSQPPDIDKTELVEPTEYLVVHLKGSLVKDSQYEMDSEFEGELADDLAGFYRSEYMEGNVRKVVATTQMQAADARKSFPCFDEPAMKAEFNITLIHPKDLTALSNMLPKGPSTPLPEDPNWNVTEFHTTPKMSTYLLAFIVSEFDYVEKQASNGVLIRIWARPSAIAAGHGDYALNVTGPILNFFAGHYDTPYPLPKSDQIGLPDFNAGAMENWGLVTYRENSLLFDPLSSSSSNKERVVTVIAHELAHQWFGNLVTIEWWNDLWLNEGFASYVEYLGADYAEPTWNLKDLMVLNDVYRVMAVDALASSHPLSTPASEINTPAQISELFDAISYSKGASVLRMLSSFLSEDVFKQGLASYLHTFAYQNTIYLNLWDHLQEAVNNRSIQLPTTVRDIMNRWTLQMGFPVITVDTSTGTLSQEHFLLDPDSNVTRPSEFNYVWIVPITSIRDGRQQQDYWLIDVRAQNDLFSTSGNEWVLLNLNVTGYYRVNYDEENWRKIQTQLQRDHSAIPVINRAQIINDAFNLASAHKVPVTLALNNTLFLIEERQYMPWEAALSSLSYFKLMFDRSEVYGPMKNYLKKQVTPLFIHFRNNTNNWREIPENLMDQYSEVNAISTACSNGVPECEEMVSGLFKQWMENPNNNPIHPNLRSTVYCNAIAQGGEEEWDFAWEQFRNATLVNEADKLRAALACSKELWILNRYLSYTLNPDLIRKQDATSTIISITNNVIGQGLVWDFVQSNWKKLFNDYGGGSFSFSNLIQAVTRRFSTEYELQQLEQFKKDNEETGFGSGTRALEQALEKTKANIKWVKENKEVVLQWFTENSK

Row | Structure (SMILES) | APN expression, combination with PTX compared with paclitaxel alone [1] | APN expression, combination with PTX compared with paclitaxel alone [2] | inhibition at 30 µM [3] [%] | anticancer effect of PTX (tumor weight) compared with single PTX administration group [4] | inhibitory rate (tumor), in combination with PTX [4] [%] | number of tumor spheres formed, compared with control and PTX alone (MDA-MB-231 cells [5]) | number of tumor spheres formed, compared with control and PTX alone (MDA-MB-468 cells [6]) | IC50 [3] [µM] | colony formation, compared with control and single PTX (MDA-MB-231 cells [7]) | colony formation, compared with control and single PTX (MDA-MB-468 cells [8]) | antiproliferative activity of chemotherapeutic drugs in combination with APN inhibitor (MDA-MB-231 cells [9]) | antiproliferative activity of chemotherapeutic drugs in combination with APN inhibitor (MDA-MB-468 cells [10]) | apoptotic rate in combination with PTX, compared with Bestatin (MDA-MB-231 cells [11]) | apoptotic rate in combination with PTX, compared with Bestatin (MDA-MB-468 cells [12]) | ROS levels compared to control group (MDA-MB-231 cells [13]) | APN expression relative to untreated control ([1]; PTX alone) | APN expression relative to untreated control ([2]; PTX alone) | ROS levels compared to control group (MDA-MB-468 cells [14]) | inhibitory potency among the tested chemotherapeutic drugs (MDA-MB-231 cells [9]; chemotherapeutic drug) | inhibitory potency among the tested chemotherapeutic drugs (MDA-MB-468 cells [10]; chemotherapeutic drug)
1 | CC(C)C[C@H](NC(=O)[C@@H](O)[C@H](N)Cc1ccccc1)C(=O)O [Bestatin, reference compound] | decreased APN expression | decreased APN expression | 53.9 ± 0.77 | improved the anticancer effect of PTX | 10.63 | significant decrease in the number of tumor spheres | significant decrease in the number of tumor spheres | – | – | – | – | – | – | – | – | – | – | – | – | –
2 | O=C(Cn1c2c(c3ccccc31)CCN(C(=O)c1cccc(F)c1)C2)NO [Compound D12, 2-(2-(3-fluorobenzoyl)-1,2,3,4-tetrahydro-9H-pyrido[3,4-b]indol-9-yl)-N-hydroxyacetamide] | decreased APN expression | decreased APN expression | 74.9 ± 4.35 | improved the anticancer effect of PTX | 54.02 | significant decrease in the number of tumor spheres | significant decrease in the number of tumor spheres | 8.92 ± 0.38 | decreased the tumor sphere and colony formation abilities | decreased the tumor sphere and colony formation abilities | synergistically improved the antiproliferative activity of chemotherapeutic drugs | synergistically improved the antiproliferative activity of chemotherapeutic drugs | higher apoptotic rate | higher apoptotic rate | – | – | – | – | – | –
3 | O=C(Cn1c2c(c3ccccc31)CCN(C(=O)c1ccccc1F)C2)NO [Compound D14, 2-(2-(2-fluorobenzoyl)-1,2,3,4-tetrahydro-9H-pyrido[3,4-b]indol-9-yl)-N-hydroxyacetamide] | decreased APN expression | decreased APN expression | 74.3 ± 6.16 | improved the anticancer effect of PTX | 31.32 | significant decrease in the number of tumor spheres | significant decrease in the number of tumor spheres | 7.74 ± 0.33 | decreased the tumor sphere and colony formation abilities | decreased the tumor sphere and colony formation abilities | synergistically improved the antiproliferative activity of chemotherapeutic drugs | synergistically improved the antiproliferative activity of chemotherapeutic drugs | higher apoptotic rate | higher apoptotic rate | – | – | – | – | – | –
4 | Cc1ccccc1C(=O)N1CCc2c(n(CC(=O)NO)c3ccccc23)C1 [Compound D16, N-hydroxy-2-(2-(2-methylbenzoyl)-1,2,3,4-tetrahydro-9H-pyrido[3,4-b]indol-9-yl)acetamide] | decreased APN expression | decreased APN expression | 74.5 ± 4.66 | improved the anticancer effect of PTX | 14.15 | significant decrease in the number of tumor spheres | significant decrease in the number of tumor spheres | 7.9 ± 0.27 | decreased the tumor sphere and colony formation abilities | decreased the tumor sphere and colony formation abilities | synergistically improved the antiproliferative activity of chemotherapeutic drugs | synergistically improved the antiproliferative activity of chemotherapeutic drugs | higher apoptotic rate | higher apoptotic rate | – | – | – | – | – | –
5 | CC(=O)O[C@H]1C(=O)[C@@]2(C)[C@H]([C@H](OC(=O)c3ccccc3)[C@]3(O)C[C@H](OC(=O)[C@H](O)[C@@H](NC(=O)c4ccccc4)c4ccccc4)C(C)=C1C3(C)C)[C@]1(OC(C)=O)CO[C@@H]1C[C@@H]2O [PTX, Paclitaxel, reference compound] | – | – | – | – | – | – | – | – | – | – | – | – | – | – | increased ROS levels | up-regulated APN expression | up-regulated APN expression | increased ROS levels | highest inhibitory potency | highest inhibitory potency
